Values quoted from earlier work as cited in patent US20060211664A1, “Method for treating erectile dysfunction and increasing libido in men” (priority 2002, published 2006).
Counter-ions that a name gives are not always drawn.

Assays:
[1] = tested on: isolated human corpus cavernosum
[2] = biological target: sex hormone binding globulin (SHBG) and albumin (Homo sapiens, UniProt P02768); details: in men
[3] = biological target: T1, sex hormone binding globulin (SHBG) and albumin (Homo sapiens, UniProt P04278); details: in men, high-affinity
T1 sequence (P04278 30-402): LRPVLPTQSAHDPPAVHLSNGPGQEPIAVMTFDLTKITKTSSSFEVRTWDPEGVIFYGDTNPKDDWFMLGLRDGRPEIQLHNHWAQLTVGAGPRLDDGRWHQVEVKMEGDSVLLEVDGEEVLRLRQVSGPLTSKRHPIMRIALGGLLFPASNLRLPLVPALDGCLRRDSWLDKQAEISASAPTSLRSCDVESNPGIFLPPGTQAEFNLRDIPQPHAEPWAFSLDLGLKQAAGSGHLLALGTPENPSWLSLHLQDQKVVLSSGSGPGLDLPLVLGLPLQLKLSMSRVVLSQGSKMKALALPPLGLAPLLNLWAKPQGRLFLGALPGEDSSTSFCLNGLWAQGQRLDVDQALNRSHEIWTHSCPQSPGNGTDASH

[4] = tested on: sex hormone binding globulin (SHBG) and albumin; details: blood

sex hormone binding globulin (SHBG) and albumin (Homo sapiens, UniProt P02768), sequence (P02768 25-609): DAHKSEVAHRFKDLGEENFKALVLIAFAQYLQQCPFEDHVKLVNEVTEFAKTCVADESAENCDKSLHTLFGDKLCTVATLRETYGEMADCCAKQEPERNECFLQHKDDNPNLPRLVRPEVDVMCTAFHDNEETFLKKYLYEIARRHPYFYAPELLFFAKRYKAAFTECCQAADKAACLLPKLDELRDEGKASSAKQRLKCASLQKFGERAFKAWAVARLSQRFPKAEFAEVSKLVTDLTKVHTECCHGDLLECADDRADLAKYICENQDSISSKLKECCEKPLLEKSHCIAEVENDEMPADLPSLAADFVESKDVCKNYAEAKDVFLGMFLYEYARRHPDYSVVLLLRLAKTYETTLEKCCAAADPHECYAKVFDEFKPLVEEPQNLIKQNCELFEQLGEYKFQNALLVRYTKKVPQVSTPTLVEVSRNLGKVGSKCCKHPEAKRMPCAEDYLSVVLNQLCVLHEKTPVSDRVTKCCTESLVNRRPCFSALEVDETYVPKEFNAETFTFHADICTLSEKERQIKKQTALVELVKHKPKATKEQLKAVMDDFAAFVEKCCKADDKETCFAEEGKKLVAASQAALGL

| Compound | direct relaxant effect on isolated human corpus cavernosum [1] | share of the binding bound weakly to albumin [2] [%] | share of the binding to sex hormone binding globulin (SHBG) [3] | testosterone in the blood bound to protein [4] [%] |
| --- | --- | --- | --- | --- |
| CCCc1nn(C)c2c(=O)[nH]c(-c3cc(S(=O)(=O)N4CCN(C)CC4)ccc3OCC)nc12 [VIAGRA®, sildenafil citrate USP] | no direct relaxant effect | – | – | – |
| C[C@]12CC[C@H]3[C@@H](CCC4=CC(=O)CC[C@@]43C)[C@@H]1CC[C@@H]2O [Testosterone, testosterone] | – | 60 | approximately 40% | 98 |
